In assay [1] the test system is wheat (Triticum aestivum ‘Liquid Sunshine’) seeds. In words: Germinating wheat seeds (48 hours water soak) soaked 1 hour in MDHJ: germination at Day 6 (Example 28). Format: in vivo. The conditions noted are these: for Percent of Seeds Germinated at Day 6, Wheat: 1 hour soak after 48 hours in water. As for the experimental part:
(§1) Seeds of wheat (Triticum aestivum ‘Liquid Sunshine’), corn (‘Sugar Pearl’) and swiss chard (‘Peppermint Stick’) were soaked in water for 48 hours, immediately followed by a 1 hour soak in no MDHJ (untreated control, or UTC), 1.5 mM MDHJ or 7.5 mM MDHJ. Seeds were then rinsed and placed between sheets of moistened paper towel and surrounded by a saran wrap tent to keep the germinating environment moist. There were 13-25 seeds for each treatment of each plant. At Day 6, seed germination was measured for each plant.

Assay [2] deals with Seeds of wheat (Triticum aestivum ‘Liquid Sunshine’). The experiment in a line: Germinating wheat seeds soaked 1 hour in MDHJ: percent germination, coleoptile length (Example 27). Type of assay: in vivo. The conditions noted are these: for Percent of Wheat Seeds Germinated at Day 7: 1 hour soak after 24 hours in water. As for the experimental part: Seeds of wheat (Triticum aestivum ‘Liquid Sunshine’) were soaked in water for 24 hours. After 24 hours, seeds were transferred to a solution containing water only (untreated control or UTC), 0.05 mM MDHJ, 0.5 mM MDHJ, or 5.0 mM MDHJ in water. There were 16-20 seeds per treatment. After soaking for 1 hour, the seeds were rinsed in water and placed between two layers of water-moistened paper towel in a clear plastic covered tray. The trays were placed at room temperature with normal daylight conditions and allowed to germinate. At day 7, the percent of germinated seeds was obtained and coleoptile length was measured.

In assay [3] the test system is Seeds of tomato (‘Crimson Carmello’). In words: Germinating tomato seeds soaked 1 hour in MDHJ: percent germination, radicle length (Example 26). Type of assay: in vivo. To be noted: for Percent of Tomato Seeds Germinated, Day 5 / Percent of Tomato Seeds Germinated, Day 7: 1 hour soak of germinating seeds. Here is the method: Seeds of tomato (‘Crimson Carmello’) were soaked in water for 24 hours. After 24 hours, seeds were transferred to a solution containing water only (untreated control or UTC), 0.05 mM MDHJ, or 0.5 mM MDHJ in water. There were 8-9 seeds per treatment. After soaking for 1 hour, the seeds were rinsed in water and placed between two layers of water-moistened paper towel in a clear plastic covered tray. The trays were placed at room temperature with normal daylight conditions and allowed to germinate. At day 5 and 7, the percent of germinated seeds was obtained. At days 5 and 7, radicle length was measured in tomato seedlings (no coleoptiles were showing yet). At Day 5 and 7, radicle length was measured in millimeters.

Assay [4] concerns plants. To be noted: U.S. Patent Application Publication No. 2009/0133166; cited from earlier work.
Assay [5] relates to plants. To be noted: U.S. Pat. Nos. 8,013,226 and 8,563,839; cited from earlier work.
For assay [6], the system named is swiss chard (‘Peppermint Stick’) seeds. In words: Germinating swiss chard seeds (48 hours water soak) soaked 1 hour in MDHJ: germination at Day 6 (Example 28). Type of assay: in vivo. To be noted: for Percent of Seeds Germinated at Day 6, Swiss Chard: 1 hour soak after 48 hours in water. Here is the method: as §1
Assay [7] concerns corn (‘Sugar Pearl’) seeds. The experiment in a line: Germinating corn seeds (48 hours water soak) soaked 1 hour in MDHJ: germination at Day 6 (Example 28). To be noted: for Percent of Seeds Germinated at Day 6, Corn: 1 hour soak after 48 hours in water. Type of assay: in vivo. Here is the method:
as §1

The subject of assay [8] is Seeds of Redina lettuce (Lechuga redina). In words: Redina lettuce seeds treated with MDHJ soak solutions with wetting agent (Example 4). Format: in vivo. Here is the method:
Non-germinated seeds of the hybrid corn varietal “Early Sun Glow” were treated with MDHJ by soaking for 24 hours in 50 mL conical vessels in one of four treatment solutions. During the soak, the seeds spent 12 hours in typical lighting conditions and 12 hours in darkness. The four treatment solutions are set forth below in Table 5. In Table 5, COCO-WET® is a wetting agent sold by Spray-N-Grow, Inc. of Rockport, Tex.
Seeds of Redina lettuce (Lechuga redina) were treated with MDHJ according to the protocol of Example 2.

The subject of assay [9] is plants. To be noted: U.S. Patent Application Publication No. 2009/0082453; cited from earlier work.
In assay [10] the test system is Seeds of corn (‘Sugar Pearl’). The experiment in a line: Planted germinating corn seeds, soil sprayed with MDHJ: seedling emergence and plant height (Example 29). Type of assay: in vivo. The conditions noted are these: for Percent Seedling Emergence: 12.5 ml/pot sprayed on soil two days after planting, 21 days after planting, n=16. Here is the method:
Seeds of corn (‘Sugar Pearl’) were soaked in water for 48 hours and subsequently planted 1-inch deep in potting soil in 6-inch pots. Two days after planting, the soil was sprayed with 12.5 ml/pot of 0 mM (UTC), 0.75 mM or 7.5 mM MDHJ. There were 8 seeds planted per pot and two pots for each treatment (n=16). Germination was recorded 21 days after planting, and plant height measured 24 days after planting.

A further assay has as its system Sugar snap pea seeds. The experiment in a line: Sugar snap pea seeds treated with MDHJ soak solutions with wetting agent: seeds germinated (Example 3). Format: in vivo. As for the experimental part: Non-germinated seeds of the hybrid corn varietal “Early Sun Glow” were treated with MDHJ by soaking for 24 hours in 50 mL conical vessels in one of four treatment solutions. During the soak, the seeds spent 12 hours in typical lighting conditions and 12 hours in darkness. The four treatment solutions are set forth below in Table 5. In Table 5, COCO-WET® is a wetting agent sold by Spray-N-Grow, Inc. of Rockport, Tex. On Day 2, 4 2-inch pots were planted with three seeds each, for a total of 12 seeds per treatment. Germination of the potted seeds was measured at days 8 and 15. Sugar snap pea seeds were treated according to the procedure in Example 2. The number of seeds germinated were counted at days 8 and 15 after treatment.

A further assay deals with seed germination. To be noted: Norastehnia et al., Gen. Appl. Plant Physiology, 2007; cited from earlier work.
In assay [11] the test system is non-germinated seeds and resulting plants. To be noted: U.S. Pat. No. 8,115,053 to Roberts et al.; treating non-germinated seeds; cited from earlier work.

Entries after “also recorded” stand apart in the source; their conditions may differ.

We go through three molecules from US20150230462A1, “METHODS FOR IMPROVING GERMINATION AND STRESS TOLERANCE CHARACTERISTICS WITH JASMONATES” (New Biology, Inc., priority 2014, published 2015).

With `CCCCCC1C(=O)CCC1CC(=O)OC` (centres unmarked) [MDHJ, methyl dihydrojasmonate], the “Percent of Seeds Germinated at Day 6, Wheat” value in [1] (1.5 mM MDHJ) and in assay [1] (7.5 mM MDHJ) was 100% throughout. In addition, the “General Observation, Wheat” value in assay [1] (1.5 mM and 7.5 mM MDHJ) was “seedlings were stunted”. For the same molecule, in assay [2] (0.05 mM MDHJ), the “seed germination percentage compared to the untreated control” value is reported as “increased seed germination percentage”. The “Percent of Wheat Seeds Germinated at Day 7” value in assay [2] (0.05 mM MDHJ) was found to be 95%; in assay [2] (0.50 mM MDHJ) it was 53%; in assay [2] (5.00 mM MDHJ), 55%. Also, the “coleoptile length” value in assay [2] (0.05 mM MDHJ, FIG. 5) was “no decrease in coleoptile length”. The “germination and coleoptile growth” value in [2] (0.5 mM and above, FIG. 5) was “inhibition of germination and coleoptile growth”. The “coleoptiles and radicles” value in [2] (5.0 mM treatment) is reported as “too short to measure”. Moreover, the “rate of seed germination in wheat” value in assay [2] (concentrations below 0.5 mM, germinating wheat in paper towel) was “beneficial for improved rate of seed germination”. Moreover, the figures for the “Percent of Tomato Seeds Germinated, Day 5” value in assay [3] (0.05 mM MDHJ) and in assay [3] (0.50 mM MDHJ) were 87.5% and 100%, respectively. Moreover, the “Percent of Tomato Seeds Germinated, Day 7” value in [3] (0.05 mM MDHJ) and in assay [3] (0.50 mM MDHJ) was 100% in each case. Moreover, in assay [3] (0.5 mM MDHJ), the “Seed germination percentage” value is “enhanced”. The “radicle length compared to untreated seeds” value in [3] (0.5 mM MDHJ, by day 7, FIG. 4) is on record as “increase in radicle length compared to untreated seeds”. Also, in the assay with plants [4], the “flowering characteristics” value is given as “improves flowering characteristics”. Also, the “chlorosis and necrosis of leaf senescence” value with plants [5] is “can reduce the chlorosis and necrosis of leaf senescence”. The “germination” value in assay [6] (1.5 mM MDHJ) and in assay [7] (1.5 mM MDHJ) was “improved” throughout. Also, the results for the “Percent of Seeds Germinated at Day 6, Swiss Chard” value in assay [6] (1.5 mM MDHJ) and in assay [6] (7.5 mM MDHJ) were 77% and 58%, respectively. Further, the “Percent of Seeds Germinated at Day 6, Corn” value was determined as 54% in [7] (1.5 mM MDHJ) and 0.1% in assay [7] (7.5 mM MDHJ). Besides, the “adverse effects on germination” value in assay [8] (15 days after treatment, MDHJ at concentrations below 1.5 mM) is given as “no adverse effects on germination; also recorded: not to adversely affect germination”. Also, the “germination benefit from MDHJ exposure” value (in assay [8] (in vivo); in the assay with Sugar snap pea seeds (in vivo)) was “no germination benefit was seen” in each case. The “biotic attack” value in the assay on plants [9] is “effective in reducing biotic attack and disease in plants; also recorded: surprisingly effective at preventing biotic attack”. For the same molecule, the figures for the “Percent Seedling Emergence” value in [10] (0.75 mM MDHJ) and in assay [10] (7.50 mM MDHJ) were 63% and 50%, respectively. Moreover, the “germination compared to the untreated control” value is reported as “increased germination” in assay [10] (0.75 mM-treated seed) and “no germination inhibition” in [10] (7.5 mM treated seed). The “growth (plant height, words)” value in assay [10] (FIG. 6, 24 days after planting, 0.75 mM or 7.5 mM) is “did not inhibit growth”. Besides, the “adverse effect on germination” value in the assay on Sugar snap pea seeds (MDHJ concentrations under 1.5 mM) was “not to adversely affect germination”.

Turning to `CC/C=C\CC1C(=O)CCC1CC(=O)OC` (centres unmarked) [methyl jasmonate], the “seed germination” value in the assay on seed germination is recorded as “inhibits seed germination”. In addition, the “pest resistance in the resulting plants” value in assay [11] is listed as “increases pest resistance in the resulting plants up to 10 weeks after sowing”.

Turning to `CC/C=C\CC1C(=O)CCC1CC(=O)O` (centres unmarked) [jasmonic acid, 2-(3-oxo-2-(pent-2-enyl)cyclopentyl)acetic acid], in [11], the “pest resistance in the resulting plants” value was “increases pest resistance in the resulting plants up to 10 weeks after sowing”.
